The values that follow are results of earlier work, collected in patent US7276500B2, “Substituted amides, their preparation and use” (Abbott GmbH & Co. KG, priority 1998, dated 2007).

The subject of data set [1] is cell membranes. The following applies: literature statement.
The test system of data set [2] is calpain. Conditions: literature statement.
For data set [3], the system named is calpain (cleavage of pp60src in platelets). Conditions: Oda et al., J. Biol. Chem. 1993.

On to `CC(C)C[C@H](NC(=O)[C@H]1O[C@@H]1C(=O)O)C(=O)NCCCCN=C(N)N` [E 64], for which, in data set [1], the “crossing of cell membranes” value is listed as “cross cell membranes only poorly” and the effect on cells entry was “only a poor effect on cells”. In addition, the calpain inhibition result in data set [2] is given as “good calpain inhibitors”.

On to `CCCC[C@@H](C=O)NC(=O)[C@H](CC(C)C)NC(=O)OCc1ccccc1` [calpeptin], for which the “cleavage of pp60src after activation of platelets” value in data set [3] is on record as “can be prevented”.

On to `CC(=O)N[C@@H](CC(C)C)C(=O)N[C@@H](CC(C)C)C(=O)N[C@H](C=O)CCCNC(=N)N` [leupeptin], for which, in data set [1], the “crossing of cell membranes” value was “cross cell membranes only poorly” and the effect on cells entry is “only a poor effect on cells”. Moreover, in data set [2], the calpain inhibition result is on record as “good calpain inhibitors”.

With Ph—CONH—CH(CH2Ph)—CO—COCOOCH3, the calpain inhibition entry in data set [2] is “only a weak calpain inhibitor”.
